In PMC12693701, “Glucosinolate-Derived Metabolites from Barbarea vulgaris (Brassicaceae): Evaluation of Antimicrobial, Antioxidant, and Anti-Inflammatory Potentials” (Molecules, 2025):

Assays:
[1] = molecular target: T1, COX-2 (Homo sapiens, UniProt P35354); test: COX-2 Inhibitor Screening Kit (Fluorometric); assay type: biochemical; conditions: for inhibition at 10 µM / inhibition at 100 µM: mean ± SE, read-out: Percentage of COX-2 Inhibition
T1 construct: purchased Abcam limited, Cambridge, UK
T1 sequence (P35354 18-604): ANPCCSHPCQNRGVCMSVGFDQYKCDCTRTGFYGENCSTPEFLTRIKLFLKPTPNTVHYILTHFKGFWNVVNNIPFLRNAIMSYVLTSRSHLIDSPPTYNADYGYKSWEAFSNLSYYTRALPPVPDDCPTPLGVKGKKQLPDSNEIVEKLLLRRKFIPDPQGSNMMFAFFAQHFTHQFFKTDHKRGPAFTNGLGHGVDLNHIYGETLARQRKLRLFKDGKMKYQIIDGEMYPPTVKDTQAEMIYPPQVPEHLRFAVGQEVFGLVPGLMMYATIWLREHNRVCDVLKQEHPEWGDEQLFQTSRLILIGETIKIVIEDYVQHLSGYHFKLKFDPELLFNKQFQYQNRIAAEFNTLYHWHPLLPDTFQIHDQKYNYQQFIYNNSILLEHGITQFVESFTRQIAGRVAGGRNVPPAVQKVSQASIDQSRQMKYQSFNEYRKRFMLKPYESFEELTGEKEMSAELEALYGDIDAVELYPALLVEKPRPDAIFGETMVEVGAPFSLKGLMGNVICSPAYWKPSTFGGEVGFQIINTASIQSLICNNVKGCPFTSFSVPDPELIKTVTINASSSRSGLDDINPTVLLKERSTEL
Experimental: The COX-2 Inhibitor Screening Kit (Fluorometric) (Abcam limited, Cambridge, UK) is a sensitive assay for screening COX-2 inhibitors by fluorometrically detecting Prostaglandin G2, an intermediate formed by COX enzymatic activity The COX-2 inhibitory activity was evaluated following the manufacturer’s instructions. Tested compounds were prepared as 5 mM DMSO stock solutions, diluted 5-fold with assay buffer, and 10 µL was used per well. Controls included celecoxib (inhibitor control), DMSO (solvent control) and enzyme control. A reaction mix containing COX-2 enzyme, probe, cofactor, and assay buffer was added (80 µL), followed by 10 µL arachidonic acid/NaOH to start the reaction. Fluorescence (Ex/Em = 535/587 nm) was monitored kinetically at 25 °C. All measurements were performed in triplicate.

[2] = tested on: tested fungal strains; test: Microdilution MIC, summary over tested fungal strains; assay type: cell-based; conditions: tested concentrations 5 to 0.039 mg/mL
Experimental: The antimicrobial activity was evaluated against 15 microorganisms. This included 11 bacterial strains: four standard strains (Staphylococcus aureus ATCC 25923, Bacillus subtilis ATCC 6633, Bacillus pumilus NCTC 8241, and Escherichia coli ATCC 25922) and six clinical or environmental isolates (Staphylococcus aureus, Escherichia coli, Bacillus cereus, Proteus mirabilis, Salmonella enterica, and Klebsiella pneumoniae). One probiotic strain, Bifidobacterium animalis subsp. lactis was tested. In addition, four fungal strains, Candida albicans ATCC 10231, Trichoderma viride ATCC 13233, Aspergillus flavus ATCC 9170, and Fusarium solani ATCC 11712 were tested. The bacterial strains were kept in glycerol stock at −80 °C and the fungal strains in paraffin oil stock at 4 °C. […]
Antimicrobial activity was evaluated by determining the minimum inhibitory concentration (MIC) and minimum microbicidal concentration (MMC) using the microdilution plate method with resazurin as an indicator [28]. […]
Each test also included growth control and sterility control. […] For molds, MIC values of the tested compound were determined as the lowest concentration that inhibited visible mycelia growth. MMC was determined by inoculation of the nutrient agar medium by plating […] of samples from wells, where no indicator color change was recorded. […]

S=C1NCC(c2ccccc2)O1 (racemic) [Compound 4, rac-5-Phenyl-1,3-oxazolidine-2-thione]
IC50 [1]: > 100 µM
inhibition at 10 µM [1]: 4.5 ± 1.6%
inhibition at 100 µM [1]: 14.2 ± 1%

S=C1NC[C@H](c2ccccc2)O1 [Compound 5, (S)-5-phenyl-1,3-oxazolidine-2-thione]
IC50 [1]: > 100 µM
inhibition at 10 µM [1]: 8.11 ± 1%
inhibition at 100 µM [1]: 21.2 ± 1.3%

O=C1NCC(c2ccccc2)S1 (stereo not shown) [Compound 6, 5-phenyl-1,3-thiazolidin-2-one]
antifungal activity (in words) [2]: all fungal strains were resistant
